Source: ChEMBL document CHEMBL1201862, “PubChem BioAssay data set” (2004)
Active and inactive are the calls of the source.

Key:
[1] = target: T1, Eukaryotic translation initiation factor 2-alpha kinase 3 (Homo sapiens, UniProt Q9NZJ5); assay: Dose response cell-based high-throughput screening assay to measure PERK inhibition. [Related pubchem assays: 1416 ]; assay type: functional
T1 sequence (Q9NZJ5 whole entry): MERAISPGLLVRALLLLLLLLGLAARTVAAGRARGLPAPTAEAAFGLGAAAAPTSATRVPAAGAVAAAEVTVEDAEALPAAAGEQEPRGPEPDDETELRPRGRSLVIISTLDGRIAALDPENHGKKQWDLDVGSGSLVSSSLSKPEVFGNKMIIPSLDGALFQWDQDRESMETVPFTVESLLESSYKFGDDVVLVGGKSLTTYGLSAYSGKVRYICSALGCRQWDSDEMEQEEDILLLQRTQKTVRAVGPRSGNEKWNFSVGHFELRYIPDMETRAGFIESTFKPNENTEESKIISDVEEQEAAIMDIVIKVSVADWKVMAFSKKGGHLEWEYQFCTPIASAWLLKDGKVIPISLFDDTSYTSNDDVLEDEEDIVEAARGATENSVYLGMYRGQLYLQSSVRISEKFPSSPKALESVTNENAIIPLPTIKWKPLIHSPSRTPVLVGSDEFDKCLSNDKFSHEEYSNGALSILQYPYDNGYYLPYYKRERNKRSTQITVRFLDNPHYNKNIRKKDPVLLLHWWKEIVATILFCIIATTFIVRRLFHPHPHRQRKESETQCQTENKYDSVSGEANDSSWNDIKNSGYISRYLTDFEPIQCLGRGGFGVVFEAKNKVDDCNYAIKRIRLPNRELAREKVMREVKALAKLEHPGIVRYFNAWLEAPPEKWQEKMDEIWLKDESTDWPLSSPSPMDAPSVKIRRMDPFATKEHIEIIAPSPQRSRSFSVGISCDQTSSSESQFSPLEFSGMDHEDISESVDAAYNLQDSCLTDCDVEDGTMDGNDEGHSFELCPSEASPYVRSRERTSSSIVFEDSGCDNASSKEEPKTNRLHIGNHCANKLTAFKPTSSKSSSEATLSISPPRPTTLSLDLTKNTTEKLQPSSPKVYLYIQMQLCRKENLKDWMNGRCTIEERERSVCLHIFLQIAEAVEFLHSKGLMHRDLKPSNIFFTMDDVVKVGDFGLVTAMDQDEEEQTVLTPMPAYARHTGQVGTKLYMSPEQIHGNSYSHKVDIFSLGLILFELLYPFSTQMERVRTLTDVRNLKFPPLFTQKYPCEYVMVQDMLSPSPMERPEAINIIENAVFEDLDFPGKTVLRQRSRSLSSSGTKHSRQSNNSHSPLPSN

[2] = target: T1, Eukaryotic translation initiation factor 2-alpha kinase 3; assay: Counterscreen assay for PERK inhibitors: Dose response cell-based high throughput screening assay to measure inhibition of PERK at 6 hours. [Related pubchem assays: 1522, 1416 ]; assay type: functional
[3] = target: Neurotensin receptor type 1 (Homo sapiens, UniProt P30989); assay type: functional;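 note: Image-based confirmatory dose-response assay measuring agonist activity at NTR1; NTR1-expressing U2OS osteosarcoma cells imaged for beta-arrestin GFP spot formation; agonist potency where compounds increase beta-arrestin recruitment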
[4] = target: T2, Acyl-homoserine lactone acylase PvdQ (Pseudomonas aeruginosa (strain LESB58), UniProt Q9I194); assay: P. aeruginosa PvdQ acylase inhibitors, dose response, biochemical, fluorescence, plate reader and imaging, cherry-picks (AID 493231)
T2 sequence (Q9I194 whole entry): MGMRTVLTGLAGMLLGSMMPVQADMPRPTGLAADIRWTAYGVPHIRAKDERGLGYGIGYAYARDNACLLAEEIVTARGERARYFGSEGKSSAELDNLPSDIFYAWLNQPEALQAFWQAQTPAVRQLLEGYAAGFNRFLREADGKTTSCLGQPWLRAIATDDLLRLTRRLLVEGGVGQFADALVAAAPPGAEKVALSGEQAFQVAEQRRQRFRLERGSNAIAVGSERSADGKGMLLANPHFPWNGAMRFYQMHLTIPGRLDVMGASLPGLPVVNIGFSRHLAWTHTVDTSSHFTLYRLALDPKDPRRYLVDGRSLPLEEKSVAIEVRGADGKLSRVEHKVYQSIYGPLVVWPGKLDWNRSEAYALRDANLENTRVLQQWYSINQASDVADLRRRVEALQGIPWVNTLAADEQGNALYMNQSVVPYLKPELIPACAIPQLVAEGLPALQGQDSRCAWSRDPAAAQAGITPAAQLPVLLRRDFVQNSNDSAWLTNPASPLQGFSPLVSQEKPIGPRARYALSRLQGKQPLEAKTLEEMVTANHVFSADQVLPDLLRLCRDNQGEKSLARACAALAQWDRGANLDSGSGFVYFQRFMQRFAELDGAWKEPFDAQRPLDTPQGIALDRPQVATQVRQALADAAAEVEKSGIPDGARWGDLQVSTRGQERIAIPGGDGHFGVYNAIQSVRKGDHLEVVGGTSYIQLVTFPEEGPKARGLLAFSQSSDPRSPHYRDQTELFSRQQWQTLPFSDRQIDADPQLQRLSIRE

[5] = target: T3, Bcl-2-related protein A1 (Mus musculus, UniProt Q07440); assay type: functional;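 note: confirmatory dose–response counterscreen on Bfl-1, used to check hits from a UBC13 polyubiquitin inhibitor campaign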
T3 sequence (Q07440 whole entry): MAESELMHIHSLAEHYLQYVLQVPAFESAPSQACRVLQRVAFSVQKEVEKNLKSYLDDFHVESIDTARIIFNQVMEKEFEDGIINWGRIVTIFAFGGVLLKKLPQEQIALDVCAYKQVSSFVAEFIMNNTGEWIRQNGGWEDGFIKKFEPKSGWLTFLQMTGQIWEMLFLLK

[6] = target: T4, Ubiquitin-conjugating enzyme E2 N (Homo sapiens, UniProt P61088); assay type: functional
T4 sequence (P61088 whole entry): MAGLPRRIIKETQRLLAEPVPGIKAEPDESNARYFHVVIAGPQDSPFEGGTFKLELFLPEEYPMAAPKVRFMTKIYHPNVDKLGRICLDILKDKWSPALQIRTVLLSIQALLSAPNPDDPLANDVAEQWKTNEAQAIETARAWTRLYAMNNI

[7] = target: T4, Ubiquitin-conjugating enzyme E2 N; assay type: functional; remark: listed apart in the source
[8] = target: T5, Voltage-gated N-type calcium channel alpha-1B subunit/Amyloid beta A4 precursor protein-binding family A member 1 (Homo sapiens, UniProt Q00975+Q02410); assay type: protein assay
[9] = target: T5, Voltage-gated N-type calcium channel alpha-1B subunit/Amyloid beta A4 precursor protein-binding family A member 1; assay type: protein assay; remark: listed apart in the source
[10] = target: Induced myeloid leukemia cell differentiation protein Mcl-1 (Homo sapiens, UniProt Q07820); assay type: functional
[11] = target: Eukaryotic translation initiation factor 4E (Mus musculus, UniProt P63073); assay: eIF4E–eIF4G protein interaction inhibitors, dose response, biochemical, TR-FRET (AID 855); assay type: functional;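 note: potency for disrupting eIF4E binding to eIF4GI seen as loss of FRET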
[12] = target: T6, Carboxy-terminal domain RNA polymerase II polypeptide A small phosphatase 1 (Homo sapiens, UniProt Q9GZU7); assay: inhibitors of CTDSP1, concentration-response testing, biochemical assay, absorbance-based, actives from ultra-high-throughput screening (AID 540297); assay type: functional
T6 sequence (Q9GZU7 whole entry): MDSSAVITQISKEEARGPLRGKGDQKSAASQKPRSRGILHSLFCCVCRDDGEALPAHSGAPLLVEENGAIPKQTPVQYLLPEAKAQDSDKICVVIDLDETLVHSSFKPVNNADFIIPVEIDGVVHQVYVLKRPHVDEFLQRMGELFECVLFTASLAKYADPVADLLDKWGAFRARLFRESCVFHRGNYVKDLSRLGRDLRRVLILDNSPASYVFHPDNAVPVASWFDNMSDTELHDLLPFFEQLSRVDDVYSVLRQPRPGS

[13] = A cytotoxicity screen of small molecule inhibitors of the PhoP region in Salmonella typhi identified in the primary screen. [Related pubchem assays: 1850, 1864, 1985 ]; assay type: functional
[14] = target: Cytochrome P450 2C19 (Homo sapiens, UniProt P33261); assay: Cytochrome panel assay with activity outcomes. Panel member name: p450-cyp2c19 Compounds with AC50 equal or less than 10 uM are considered active; assay type: functional
[15] = target: T7, Replicative DNA helicase DnaB (Mycobacterium tuberculosis, UniProt P9WMR3); assay: DnaB intein splicing inhibitors, dose response, biochemical, cell-free fluorescence (AID 449749); assay type: functional
T7 sequence (P9WMR3 whole entry): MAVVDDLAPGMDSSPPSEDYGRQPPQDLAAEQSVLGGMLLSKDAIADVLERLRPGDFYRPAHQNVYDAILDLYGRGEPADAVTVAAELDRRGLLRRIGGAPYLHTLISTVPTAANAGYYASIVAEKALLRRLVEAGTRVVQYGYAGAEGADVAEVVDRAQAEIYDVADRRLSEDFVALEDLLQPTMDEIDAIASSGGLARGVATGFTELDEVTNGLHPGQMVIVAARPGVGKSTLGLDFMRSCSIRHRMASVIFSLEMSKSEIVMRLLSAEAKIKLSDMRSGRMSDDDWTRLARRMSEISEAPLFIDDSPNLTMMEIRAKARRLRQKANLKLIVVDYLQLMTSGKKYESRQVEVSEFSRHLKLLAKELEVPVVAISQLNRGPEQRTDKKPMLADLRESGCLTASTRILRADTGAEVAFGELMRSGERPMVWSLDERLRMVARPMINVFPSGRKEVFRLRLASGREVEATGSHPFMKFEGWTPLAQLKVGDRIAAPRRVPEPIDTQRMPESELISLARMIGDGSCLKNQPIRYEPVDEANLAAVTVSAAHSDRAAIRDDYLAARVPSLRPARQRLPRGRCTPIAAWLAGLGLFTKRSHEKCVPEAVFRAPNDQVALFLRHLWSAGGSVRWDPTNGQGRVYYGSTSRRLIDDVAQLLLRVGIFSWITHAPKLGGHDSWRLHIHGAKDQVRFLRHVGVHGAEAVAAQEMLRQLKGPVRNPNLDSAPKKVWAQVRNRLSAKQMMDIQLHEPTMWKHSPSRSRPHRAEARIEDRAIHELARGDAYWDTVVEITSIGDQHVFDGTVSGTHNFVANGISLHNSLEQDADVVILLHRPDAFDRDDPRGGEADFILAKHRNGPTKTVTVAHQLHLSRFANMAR

[16] = target: T8, Protein RecA (Mycobacterium tuberculosis, UniProt P9WHJ3); assay: Fluorescence Cell-Free Homogeneous Dose Retest to Identify Inhibitors of RecA-Intein Splicing Activity. [Related pubchem assays (depositor defined):AID2097, AID2223, AID489010, AID492950]; assay type: functional
T8 sequence (P9WHJ3 whole entry): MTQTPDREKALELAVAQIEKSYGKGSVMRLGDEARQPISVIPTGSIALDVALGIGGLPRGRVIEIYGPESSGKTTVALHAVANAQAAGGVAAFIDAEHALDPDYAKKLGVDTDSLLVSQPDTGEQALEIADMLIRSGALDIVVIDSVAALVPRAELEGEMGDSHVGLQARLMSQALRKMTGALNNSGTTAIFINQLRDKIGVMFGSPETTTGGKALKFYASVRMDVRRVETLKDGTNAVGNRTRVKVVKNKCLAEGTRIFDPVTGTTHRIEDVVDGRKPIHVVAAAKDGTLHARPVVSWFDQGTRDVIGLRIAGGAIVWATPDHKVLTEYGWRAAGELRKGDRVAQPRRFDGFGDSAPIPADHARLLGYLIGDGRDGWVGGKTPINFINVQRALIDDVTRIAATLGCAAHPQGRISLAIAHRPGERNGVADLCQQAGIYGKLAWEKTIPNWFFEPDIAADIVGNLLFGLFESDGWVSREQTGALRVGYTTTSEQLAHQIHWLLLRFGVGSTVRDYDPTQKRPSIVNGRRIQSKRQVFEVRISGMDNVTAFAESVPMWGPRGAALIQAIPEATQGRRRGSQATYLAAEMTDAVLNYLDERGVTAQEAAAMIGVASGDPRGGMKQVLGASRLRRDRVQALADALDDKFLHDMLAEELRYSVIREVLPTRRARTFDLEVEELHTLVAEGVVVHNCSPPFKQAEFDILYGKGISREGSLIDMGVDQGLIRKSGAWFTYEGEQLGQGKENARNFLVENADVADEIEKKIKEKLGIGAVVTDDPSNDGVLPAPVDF

[17] = target: Genome polyprotein (dengue virus type 2, UniProt P29990); assay: Dengue-2 NS5 methyltransferase inhibitors, primary screen, biochemical, confirmation dose response (AID 588689); assay type: functional
[18] = target: DNA dC->dU-editing enzyme APOBEC-3G (Homo sapiens, UniProt Q9HC16); assay: Dose Response confirmation of small molecule APOBEC3G DNA Deaminase Inhibitors via a fluorescence-based single-stranded DNA deaminase assay. [Related pubchem assays (depositor defined):AID493012, AID493028]; assay type: functional
DNA dC->dU-editing enzyme APOBEC-3G, sequence (Q9HC16 whole entry): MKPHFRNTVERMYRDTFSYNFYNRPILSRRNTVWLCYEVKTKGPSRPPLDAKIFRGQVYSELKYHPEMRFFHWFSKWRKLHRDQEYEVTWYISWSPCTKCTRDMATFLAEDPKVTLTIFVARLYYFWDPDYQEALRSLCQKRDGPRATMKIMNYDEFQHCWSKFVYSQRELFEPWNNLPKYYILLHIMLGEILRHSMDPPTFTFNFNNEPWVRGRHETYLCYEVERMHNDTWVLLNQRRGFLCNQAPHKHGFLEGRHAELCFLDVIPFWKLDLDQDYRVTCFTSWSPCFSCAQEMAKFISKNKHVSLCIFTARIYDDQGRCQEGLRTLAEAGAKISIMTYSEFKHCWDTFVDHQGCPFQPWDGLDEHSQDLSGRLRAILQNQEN

T5 sequence (Q00975 whole entry): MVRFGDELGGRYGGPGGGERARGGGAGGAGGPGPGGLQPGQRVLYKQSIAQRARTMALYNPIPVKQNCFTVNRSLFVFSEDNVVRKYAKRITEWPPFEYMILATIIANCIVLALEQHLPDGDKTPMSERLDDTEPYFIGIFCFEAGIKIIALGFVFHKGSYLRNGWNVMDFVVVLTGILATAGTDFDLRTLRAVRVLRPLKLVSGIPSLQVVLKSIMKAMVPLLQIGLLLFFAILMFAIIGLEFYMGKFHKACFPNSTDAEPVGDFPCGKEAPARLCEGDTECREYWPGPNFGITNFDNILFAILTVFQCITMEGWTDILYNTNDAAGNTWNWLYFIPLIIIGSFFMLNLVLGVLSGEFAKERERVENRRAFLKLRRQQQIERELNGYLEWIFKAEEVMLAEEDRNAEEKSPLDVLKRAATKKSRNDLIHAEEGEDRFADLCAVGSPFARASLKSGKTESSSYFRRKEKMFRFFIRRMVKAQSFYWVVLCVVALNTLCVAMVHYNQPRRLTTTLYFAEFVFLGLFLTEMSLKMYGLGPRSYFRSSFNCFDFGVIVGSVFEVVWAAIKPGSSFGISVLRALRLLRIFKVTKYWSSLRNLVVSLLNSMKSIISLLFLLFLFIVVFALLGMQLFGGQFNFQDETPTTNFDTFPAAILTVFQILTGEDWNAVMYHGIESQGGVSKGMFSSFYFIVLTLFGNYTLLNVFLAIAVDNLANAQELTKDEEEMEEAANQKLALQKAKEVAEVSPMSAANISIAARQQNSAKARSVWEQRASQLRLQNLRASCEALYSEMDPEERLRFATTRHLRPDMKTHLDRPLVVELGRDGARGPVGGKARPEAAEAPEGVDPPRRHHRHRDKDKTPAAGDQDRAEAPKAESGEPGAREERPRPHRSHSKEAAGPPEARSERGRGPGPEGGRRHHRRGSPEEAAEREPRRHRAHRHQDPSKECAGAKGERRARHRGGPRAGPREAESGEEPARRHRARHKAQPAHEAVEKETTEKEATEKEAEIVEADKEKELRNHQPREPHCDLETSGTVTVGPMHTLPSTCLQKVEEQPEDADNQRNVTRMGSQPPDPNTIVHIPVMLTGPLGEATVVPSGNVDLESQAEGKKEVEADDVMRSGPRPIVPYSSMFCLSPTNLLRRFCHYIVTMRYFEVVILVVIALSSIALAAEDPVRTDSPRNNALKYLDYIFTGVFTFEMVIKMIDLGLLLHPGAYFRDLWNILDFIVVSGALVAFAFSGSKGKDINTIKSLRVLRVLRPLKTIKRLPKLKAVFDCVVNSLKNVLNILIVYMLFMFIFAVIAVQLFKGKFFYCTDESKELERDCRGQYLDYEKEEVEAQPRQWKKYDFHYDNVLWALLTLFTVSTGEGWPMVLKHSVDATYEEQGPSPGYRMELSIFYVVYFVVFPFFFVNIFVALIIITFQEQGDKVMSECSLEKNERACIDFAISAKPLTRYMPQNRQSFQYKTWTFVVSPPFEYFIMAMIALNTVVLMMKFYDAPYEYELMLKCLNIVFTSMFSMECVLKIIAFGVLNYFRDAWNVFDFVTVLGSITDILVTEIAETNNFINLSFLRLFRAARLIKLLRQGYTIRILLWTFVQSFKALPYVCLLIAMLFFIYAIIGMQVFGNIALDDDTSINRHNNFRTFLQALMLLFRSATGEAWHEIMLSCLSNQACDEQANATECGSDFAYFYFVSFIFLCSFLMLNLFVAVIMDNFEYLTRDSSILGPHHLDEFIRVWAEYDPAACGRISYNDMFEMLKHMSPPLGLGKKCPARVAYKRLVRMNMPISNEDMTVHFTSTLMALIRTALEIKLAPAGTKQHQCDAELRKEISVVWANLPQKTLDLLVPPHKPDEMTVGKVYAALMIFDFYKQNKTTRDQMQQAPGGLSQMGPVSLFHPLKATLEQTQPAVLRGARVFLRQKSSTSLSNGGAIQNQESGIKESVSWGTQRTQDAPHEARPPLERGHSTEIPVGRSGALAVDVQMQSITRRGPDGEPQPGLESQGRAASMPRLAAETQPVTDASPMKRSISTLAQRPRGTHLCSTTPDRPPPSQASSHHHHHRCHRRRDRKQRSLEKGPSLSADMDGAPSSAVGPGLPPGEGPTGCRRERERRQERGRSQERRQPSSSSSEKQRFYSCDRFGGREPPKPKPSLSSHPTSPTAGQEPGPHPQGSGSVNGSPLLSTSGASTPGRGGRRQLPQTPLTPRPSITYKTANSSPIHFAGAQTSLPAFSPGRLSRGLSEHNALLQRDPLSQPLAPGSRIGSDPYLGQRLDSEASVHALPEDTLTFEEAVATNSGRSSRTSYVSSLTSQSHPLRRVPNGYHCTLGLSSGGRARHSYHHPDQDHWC
T5 sequence (Q02410 whole entry): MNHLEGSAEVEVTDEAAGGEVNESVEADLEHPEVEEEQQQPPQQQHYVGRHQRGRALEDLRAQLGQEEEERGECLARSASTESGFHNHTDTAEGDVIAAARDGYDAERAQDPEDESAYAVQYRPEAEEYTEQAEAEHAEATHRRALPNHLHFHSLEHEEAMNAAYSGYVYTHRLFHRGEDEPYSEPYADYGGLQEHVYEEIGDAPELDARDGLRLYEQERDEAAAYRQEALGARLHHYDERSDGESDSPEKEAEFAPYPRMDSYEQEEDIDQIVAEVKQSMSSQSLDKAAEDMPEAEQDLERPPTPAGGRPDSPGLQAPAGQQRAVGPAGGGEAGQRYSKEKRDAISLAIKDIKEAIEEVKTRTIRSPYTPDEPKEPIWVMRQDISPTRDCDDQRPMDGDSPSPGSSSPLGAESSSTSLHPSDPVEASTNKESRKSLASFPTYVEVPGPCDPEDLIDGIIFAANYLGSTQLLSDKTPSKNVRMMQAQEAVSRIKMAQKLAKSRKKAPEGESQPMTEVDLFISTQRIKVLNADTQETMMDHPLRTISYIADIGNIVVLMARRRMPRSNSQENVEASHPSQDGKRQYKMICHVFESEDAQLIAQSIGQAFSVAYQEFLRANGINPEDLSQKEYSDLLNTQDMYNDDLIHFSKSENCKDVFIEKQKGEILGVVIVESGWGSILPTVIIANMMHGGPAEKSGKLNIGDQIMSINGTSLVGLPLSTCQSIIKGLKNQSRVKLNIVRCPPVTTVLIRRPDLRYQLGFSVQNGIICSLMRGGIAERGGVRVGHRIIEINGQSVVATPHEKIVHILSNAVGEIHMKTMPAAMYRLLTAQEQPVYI
Eukaryotic translation initiation factor 4E, sequence (P63073 whole entry, the tested form may be a part): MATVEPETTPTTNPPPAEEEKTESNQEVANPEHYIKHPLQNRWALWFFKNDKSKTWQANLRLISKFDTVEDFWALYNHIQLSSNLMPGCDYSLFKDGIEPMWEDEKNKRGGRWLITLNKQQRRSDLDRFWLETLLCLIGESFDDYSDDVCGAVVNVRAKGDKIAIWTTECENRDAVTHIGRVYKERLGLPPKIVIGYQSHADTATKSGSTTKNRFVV
Cytochrome P450 2C19, sequence (P33261 whole entry): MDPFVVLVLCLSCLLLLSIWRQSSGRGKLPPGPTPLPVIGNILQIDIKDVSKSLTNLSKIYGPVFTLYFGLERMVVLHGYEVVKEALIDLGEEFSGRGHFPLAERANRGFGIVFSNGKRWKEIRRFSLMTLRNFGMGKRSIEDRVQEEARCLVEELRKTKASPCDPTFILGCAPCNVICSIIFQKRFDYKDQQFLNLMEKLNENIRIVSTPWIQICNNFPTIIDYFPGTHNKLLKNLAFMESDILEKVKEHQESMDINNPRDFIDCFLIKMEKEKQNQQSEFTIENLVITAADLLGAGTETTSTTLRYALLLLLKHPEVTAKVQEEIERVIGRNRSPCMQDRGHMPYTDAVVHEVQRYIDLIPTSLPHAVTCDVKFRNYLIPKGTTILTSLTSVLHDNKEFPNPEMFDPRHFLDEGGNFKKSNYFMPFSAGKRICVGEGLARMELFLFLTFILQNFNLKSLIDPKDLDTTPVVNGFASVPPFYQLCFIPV
Induced myeloid leukemia cell differentiation protein Mcl-1, sequence (Q07820 whole entry): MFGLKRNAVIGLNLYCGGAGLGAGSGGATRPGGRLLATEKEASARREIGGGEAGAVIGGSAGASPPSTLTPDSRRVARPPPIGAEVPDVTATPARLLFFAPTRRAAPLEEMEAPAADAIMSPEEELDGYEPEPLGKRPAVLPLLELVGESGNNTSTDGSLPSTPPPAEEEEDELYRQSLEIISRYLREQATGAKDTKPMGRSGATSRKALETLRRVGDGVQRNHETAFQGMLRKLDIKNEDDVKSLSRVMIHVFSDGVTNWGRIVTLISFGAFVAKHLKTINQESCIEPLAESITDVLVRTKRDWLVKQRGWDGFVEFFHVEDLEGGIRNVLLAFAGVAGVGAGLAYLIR
Neurotensin receptor type 1, sequence (P30989 whole entry): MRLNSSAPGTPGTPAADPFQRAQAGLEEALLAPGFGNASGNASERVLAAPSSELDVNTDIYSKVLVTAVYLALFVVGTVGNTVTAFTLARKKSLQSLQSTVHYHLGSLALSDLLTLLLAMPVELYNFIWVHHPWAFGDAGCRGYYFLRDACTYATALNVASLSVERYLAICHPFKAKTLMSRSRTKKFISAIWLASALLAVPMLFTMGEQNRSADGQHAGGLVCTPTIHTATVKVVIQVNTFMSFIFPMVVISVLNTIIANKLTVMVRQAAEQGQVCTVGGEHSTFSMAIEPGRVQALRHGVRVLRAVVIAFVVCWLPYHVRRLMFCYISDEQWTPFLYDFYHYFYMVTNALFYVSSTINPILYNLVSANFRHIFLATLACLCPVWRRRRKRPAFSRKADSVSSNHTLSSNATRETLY

In the case of `O=C(NC(=S)Nc1ccc2oc(=O)ccc2c1)c1ccccc1F`, the EC50 [1] is reported as > 55.7 µM (not active) and the EC50 [2] is reported as > 55.7 µM (not active).
For `COc1cc2c(cc1OC)C(SC)=NC(C)(C)C2`, the EC50 [3] was 9.39 µM (active).
With `Cc1cc(NC(=O)c2cc([N+](=O)[O-])cc([N+](=O)[O-])c2C)no1` the AC50 [4] was 3.11 µM (active).
For `Cc1ccc(S(=O)(=O)NCCC(C)C)cc1[N+](=O)[O-]`, the AC50 [4] was 12.5 µM (active).
In the case of `N#CN(Cc1ccccc1)Cc1ccccc1`, the AC50 [4] is reported as 1.6 µM (active).
In the case of `CCOc1ccc(-c2nc(S(=O)(=O)c3ccccc3)c(NC)o2)cc1`, the IC50 [5] is reported as > 20 µM (inactive), the IC50 [6] is reported as 19 µM (active) and the IC50 [7] is reported as > 20 µM (inactive).
In the case of `NC1=NC(=Nc2cccc(S(N)(=O)=O)c2)c2ccccc21`, the EC50 [1] is reported as > 55.7 µM (not active) and the EC50 [2] is reported as > 55.7 µM (not active).
In the case of `CCOC(=O)c1cc(-c2ccc(OC)cc2)nc2c1c(C)nn2CCC#N`, the IC50 [5] is reported as > 20 µM (inactive), the IC50 [6] is reported as 15 µM (active) and the IC50 [7] is reported as 6.8 µM (active).
With `CC(C)N(C(=O)/C=C/c1cccc([N+](=O)[O-])c1)C(C)C` the EC50 [1] was > 55.7 µM (not active) and the EC50 [2] was > 55.7 µM (not active).
With `CC(=O)c1ccc(NC(=O)CSc2ccsc2[N+](=O)[O-])cc1` the IC50 [8] was 6 µM (active), the IC50 [9] was 48.2 µM (active) and the IC50 [10] was < 0.4 µM (not active). The IC50 [11] was 50 µM (inactive) and the IC50 [12] was 3.83 µM (active).
For `COc1cccc(C(c2c(C)[nH]n(-c3ccccc3)c2=O)c2c(C)[nH]n(-c3ccccc3)c2=O)c1O`, the EC50 [13] was > 50 µM (active), the AC50 [14] was “inconclusive” and the AC50 [15] was 1.18 µM (active). For the same compound, the EC50 [16] was 0.829 µM (active) and the IC50 [17] was 38.8 µM (active).
With `Sc1nnc(-c2ccco2)n1/N=C/c1ccccn1` the IC50 [18] was 9.12 µM (active).
